Measured values from patent publication US8969516B2, “Method of hydrolysis of peptide bond” (priority 2006, dated 2015).

Assay: MALDI-TOF screening of Ni^2+ dependent hydrolysis in a combinatorial peptide library
Format: physicochemical
Conditions: CH3CO-Gly-Ala-Ser-X-His-Z-Lys-Phe-Leu-NH2 library, Ni^2+ 2 mM, pH 8.2, 10 mM Tris, score=24/tm
Summary of the method: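 MALDI-TOF spectra taken at 2, 4, 6 and 8 h tracked the appearance of Ser/Thr-X-His-Z-Lys-Phe-Leu-NH2 cleavage products and the fall in substrate signals. Reactions: 1 mM peptide mixture, 2 mM Ni^2+, 10 mM Tris pH 8.2, at 37 or 45 °C; X/Z substitutions ranked by summed scores.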

Row | Substance | hydrolysis score from MALDI-TOF screening (37° C.) | hydrolysis score from MALDI-TOF screening (45° C.)
1 | Ac-GASKHPKFL-NH2 [SKHP] | 0 (a score of 0 if no trace of the product of hydrolysis was seen after 8 hours of incubation) | 0 (a score of 0 if no trace of the product of hydrolysis was seen after 8 hours of incubation)
2 | Ac-GASKHQKFL-NH2 [SKHQ] | 0 (a score of 0 if no trace of the product of hydrolysis was seen after 8 hours of incubation) | 0 (a score of 0 if no trace of the product of hydrolysis was seen after 8 hours of incubation)
3 | Ac-GASKHTKFL-NH2 [SKHT] | 0 (a score of 0 if no trace of the product of hydrolysis was seen after 8 hours of incubation) | 0 (a score of 0 if no trace of the product of hydrolysis was seen after 8 hours of incubation)
4 | Ac-GASKHVKFL-NH2 [SKHV] | 4 (a score of 4 for detection at 6 hours) | 6 (a score of 6 for detection at 4 hours)
5 | Ac-GASKHWKFL-NH2 [SKHW] | 12 (a score of 12, if it was seen to be partially hydrolysed at 2 hours) | 12 (a score of 12, if it was seen to be partially hydrolysed at 2 hours)
6 | Ac-GASKHYKFL-NH2 [SKHY] | 4 (a score of 4 for detection at 6 hours) | 4 (a score of 4 for detection at 6 hours)
7 | Ac-GASLHAKFL-NH2 [SLHA] | 0 (a score of 0 if no trace of the product of hydrolysis was seen after 8 hours of incubation) | 0 (a score of 0 if no trace of the product of hydrolysis was seen after 8 hours of incubation)
8 | Ac-GASLHDKFL-NH2 [SLHD] | 0 (a score of 0 if no trace of the product of hydrolysis was seen after 8 hours of incubation) | 0 (a score of 0 if no trace of the product of hydrolysis was seen after 8 hours of incubation)
9 | Ac-GASLHEKFL-NH2 [SLHE] | 0 (a score of 0 if no trace of the product of hydrolysis was seen after 8 hours of incubation) | 0 (a score of 0 if no trace of the product of hydrolysis was seen after 8 hours of incubation)
10 | Ac-GASLHFKFL-NH2 [SLHF] | 0 (a score of 0 if no trace of the product of hydrolysis was seen after 8 hours of incubation) | 3 (a score of 3 for detection at 8 hours)
11 | Ac-GASLHGKFL-NH2 [SLHG] | 0 (a score of 0 if no trace of the product of hydrolysis was seen after 8 hours of incubation) | 0 (a score of 0 if no trace of the product of hydrolysis was seen after 8 hours of incubation)
12 | Ac-GASLHHKFL-NH2 [SLHH] | 0 (a score of 0 if no trace of the product of hydrolysis was seen after 8 hours of incubation) | 0 (a score of 0 if no trace of the product of hydrolysis was seen after 8 hours of incubation)
13 | Ac-GASLHIKFL-NH2 [SLHI] | 3 (a score of 3 for detection at 8 hours) | 0 (a score of 0 if no trace of the product of hydrolysis was seen after 8 hours of incubation)
14 | Ac-GASLHKKFL-NH2 [SLHK] | 3 (a score of 3 for detection at 8 hours) | 4 (a score of 4 for detection at 6 hours)
15 | Ac-GASLHLKFL-NH2 [SLHL] | 3 (a score of 3 for detection at 8 hours) | 0 (a score of 0 if no trace of the product of hydrolysis was seen after 8 hours of incubation)
16 | Ac-GASLHMKFL-NH2 [SLHM] | 0 (a score of 0 if no trace of the product of hydrolysis was seen after 8 hours of incubation) | 0 (a score of 0 if no trace of the product of hydrolysis was seen after 8 hours of incubation)
